# Experimental data from patent US20230226070A1, “TREATMENT OF THROMBOSIS AND ASSOCIATED DISORDERS WITH AN ANTI-PLATELET AGENT” (THE HEART RESEARCH INSTITUTE LTD, priority 2020, published 2023).
# Entries after “also recorded” stand apart in the source; their conditions may differ. Where a SMILES comes first, the peptide text is derived from it. Bridges are numbered along the chain shown (N, C = ends). [ ]: non-standard residue; d: D form. hArg = N=C(N)NCCCC[C@H](N)C(=O)O; Mpa = O=C(O)CCS
# Experiments:
# [1] = tested on: ischaemic stroke after carotid artery thrombotic occlusion and contralateral stenosis; assay type: in vivo
# tail bleeding = assay: 3 mm tail lop (tail transection) bleeding assay
# Method: Bleeding was assessed using a 3 mm tail lop assay. Drug treatments (bolus) were administered 10 min before the start of tail bleeding. When a 30 min infusion was used, the tail bleeding experiment began as soon as the infusion finished. Following drug administration, a 3 mm long section of the tail tip was removed using a scalpel blade and the tail tip immersed in warmed saline. Bleeding was monitored until cessation and the time recorded. […] If the tail did re-bleed, length of time of rebleeding was also recorded. The experiment was ended when bleeding had ceased for at least 2 min, or at 30 min post-tail tip removal. Haemoglobin was quantified using 2 methods [(i, ii) using Abs 575 nm; (iii) using a colorimetric haemoglobin assay, as per the manufacturer's instructions (Sigma Aldrich, Haemoglobin Assay Kit MAK115)]. The treatment dosing regimens were as follows: rtPA (10 mg/kg: 1 mg/kg bolus, 9 mg/kg infusion over 30 min); Integrilin (1-10 mg/kg, bolus every 15 minutes); TGX221 (2.5 mg/kg; single bolus 15 minutes prior to lop); Arg—argatroban (80 ug/kg bolus; 40 ug/kg/min infusion 60). […] Data are presented as mean±SEM.
# In addition, 15 minutes following commencement of treatment administration, tail transection (3 mm) was performed, and the tail tip immersed in warm (37° C.) saline to allow for blood collection from the tail (as described under “Methods”). Flow of blood was assessed over 30 minutes and any periods of blood flow cessation and rebleeding noted. Blood monitoring and collection was ceased at 30 minutes after lop, for all mice. Haemoglobin content was assessed in the collected sample using a colorimetric haemoglobin assay, as per the manufacturer's instructions (Sigma Aldrich, Haemoglobin Assay Kit MAK115). Data was analysed using a one-way ANOVA relative to Vehicle. […] The bar graph depicts mean±SD, where ***P<0.0005, ^nsP>0.05.
# [2] = tested on: occlusive thrombus in the mouse carotid artery; assay: carotid artery thrombosis model: occlusive thrombus formation induced by electrolytic injury, recanalisation classified from carotid blood flow; assay type: in vivo, C57BL/6 male mice; conditions: for thrombolysis, recanalisation and vessel reocclusion (in words): dual therapy: antiplatelet agent 2.5 mg/kg together with rtPA 10 mg/kg; for comparative anti-platelet efficacy in vivo, TGX221 versus AZD6482: each 2.5 mg/kg combined with rtPA 10 mg/kg; for lysis of 4.5 hours aged clots (in words): treatment 270 min after occlusion, triple therapy versus rtPA/argatroban dual therapy; for recanalisation of older (aged) clots (in words): triple therapy: rtPA + argatroban + antiplatelet agent (2.5 mg/kg, 2x bolus), treatment 15, 120 or 270 min after occlusion
# mouse blood/platelets = assay: ADP-induced aggregation in PPACK-anticoagulated PRP (Integrilin dose-response); assay type: cell-based
# Excerpt: Data are presented as mean±SEM.
compound,measurement,setting,value
"Cc1cc(C(C)Nc2ccccc2)c2nc(N3CCOCC3)cc(=O)n2c1 (racemic) [TGX221, (±)-7-methyl-2-morpholin-4-yl-9-(1-phenylaminoethyl)-pyrido[1,2-a]pyrimidin-4-one]",vessel (carotid) recanalisation (in words),"[1]; triple therapy: TGX221 2.5 mg/kg + argatroban + rtPA 10 mg/kg, 5 min after stroke onset",improved blood flow (recanalisation)
same,cerebral perfusion (in words),[1]; triple therapy: TGX221 + argatroban + rtPA,improved cerebral reperfusion
same,"cerebral infarct (TTC staining, in words)","[1]; triple therapy: TGX221 + argatroban + rtPA, 24 hours",reduced cerebral infarct
same,tail bleeding (in words),tail bleeding; administered alone (TGX221 2.5 mg/kg; Integrilin 3 mg/kg and above),does not Increase Tail Bleeding
same,tail bleeding (in words),tail bleeding; in combination with rt-PA (10 mg/kg; for TGX221 also up to 20 mg/kg),promising bleeding profile
same,"thrombolysis, recanalisation and vessel reocclusion (in words)",[2]; 15 min after occlusion,improves thrombolysis and vessel reocclusion over and above that achieved with rtPA alone; also recorded: effectively enhancing recanalisation
same,"comparative anti-platelet efficacy in vivo, TGX221 versus AZD6482",[2],equipotent
same,lysis of 4.5 hours aged clots (in words),[2],benefit
same,recanalisation and reocclusion (in words),"[2]; triple therapy: TGX221 2.5 mg/kg + argatroban + rtPA 10 mg/kg, 15 min after occlusion",improving recanalisation as well as reducing reocclusion
same,recanalisation of older (aged) clots (in words),[2],improving recanalization of older clots
"Cc1cc([C@@H](C)Nc2ccccc2C(=O)O)c2nc(N3CCOCC3)cc(=O)n2c1 [AZD6482, (−)-2-({1R-[7-methyl-2-(morpholin-4-yl)-4-oxo-pyrido[1,2-a]pyrimidin-9-yl]ethyl}amino)benzoic acid]","thrombolysis, recanalisation and vessel reocclusion (in words)",[2]; 15 min after occlusion,improves thrombolysis and vessel reocclusion over and above that achieved with rtPA alone; also recorded: effectively enhancing recanalisation
same,"comparative anti-platelet efficacy in vivo, TGX221 versus AZD6482",[2],equipotent
same,lysis of 4.5 hours aged clots (in words),[2],benefit
same,recanalisation of older (aged) clots (in words),[2],improving recanalization of older clots
"N=C(N)NCCCC[C@@H]1NC(=O)CCSSC[C@@H](C(N)=O)NC(=O)[C@@H]2CCCN2C(=O)[C@H](Cc2c[nH]c3ccccc23)NC(=O)[C@H](CC(=O)O)NC(=O)CNC1=O [Integrilin, Eptifibatide, reference compound] ([Mpa][hArg]GDWPC-NH2; disulfide 1-7)",stable recanalisation of the occluded carotid artery (in words),[1]; integrilin 4 mg/kg every 15 min with rtPA 10 mg/kg and argatroban,enhances stable recanalisation
same,inhibition of ADP-induced aggregation,mouse blood/platelets; 3.0 mg/kg ('Stroke' dose),approximately 60%
same,inhibition of ADP-induced aggregation,mouse blood/platelets; 4.0 mg/kg ('AMI' dose),~80%
same,tail bleeding / safety (in words),tail bleeding; triple therapy with rt-PA 10 mg/kg and argatroban,accompanied by an increase in bleeding
"rtPA: recombinant tissue plasminogen activator, thrombolytic agent, purchased from Boehringer Ingelheim",recanalisation category / re-thrombosis (in words),"[2]; rt-PA monotherapy 10 mg/kg, 15 min after occlusion, 60 min monitoring",induces transient recanalisation
same,"clot lysis and recanalisation of the carotid, share of vessels","[2]; rtPA 10 mg/kg i.v. alone, 15 min after occlusion, blood flow monitored 60 min",approximately 25%
